Assay: in vitro
Details: human, hela cells, % viability

Question: For `Cc1no[n+]([O-])c1COc1cccc(/C=C2\N=C(c3ccccc3)OC2=O)c1` [CBK263454], which viability at 28.5 h, 10 µM is on record?
Answer: Its viability at 28.5 h, 10 µM is 96.3%.

Question: Which viability at 28.5 h, 10 µM does the source give for `COc1cc(C=O)ccc1OC(=O)c1cn(-c2ccccc2)nc1-c1cccnc1` [CBK264255] here?
Answer: Its viability at 28.5 h, 10 µM is 89.6%.

Question: For `COCC(=O)NC1CCN(CC2(c3ccc(F)cc3)CCCC2)CC1` [CBK285387], which viability at 28.5 h, 10 µM is on record?
Answer: Its viability at 28.5 h, 10 µM is 95.5%.

Question: For `CN(C)CCN(C)Cc1ccccc1O` [CBK261875], which viability at 28.5 h, 10 µM is on record?
Answer: Its viability at 28.5 h, 10 µM is 103%.

Question: Which viability at 28.5 h, 10 µM does the source give for `CC(=O)OCc1c(C)cc(C)c(CN(C)C(C)c2ccncn2)c1C` (centres unmarked) [CBK307315] here?
Answer: The viability at 28.5 h, 10 µM was 95.1%.

Question: Which viability at 28.5 h, 10 µM does the source give for `CCOC(=O)C1CCN(S(=O)(=O)c2ccccc2)CC1` [CBK051091] here?
Answer: Its viability at 28.5 h, 10 µM is 107%.

Question: With `COc1ccc(OCCOCCN2CCOCC2)cc1` [CBK261999] as the compound, how does the viability at 28.5 h, 10 µM read?
Answer: Its viability at 28.5 h, 10 µM is 91.3%.

Question: Which viability at 28.5 h, 10 µM (bulk resorufin, single well) does the source give for `COc1ccc(C(=O)Nc2ccc3c(c2)COC2(CCNCC2)O3)c(OC)n1` [CBK091528T] here?
Answer: Its viability at 28.5 h, 10 µM is 87.5%.

Question: For `CC(Cn1cncn1)C(=O)N1CCCCC1CCc1ccccc1` (centres unmarked) [CBK282265], which viability at 28.5 h, 10 µM is on record?
Answer: The viability at 28.5 h, 10 µM was 109%.

Question: Which viability at 28.5 h, 10 µM does the source give for `O=C(CCn1cnnn1)N1C[C@H]2CC[C@@H]1CN(Cc1cccnc1)C2` [CBK307029] here?
Answer: Its viability at 28.5 h, 10 µM is 88.9%.

Question: With `COc1cc(-c2cc(N3CCN(CCN4CCCC4)CC3)ncn2)cc(OC)c1OC` [CBK037841] as the compound, how does the viability at 28.5 h, 10 µM read?
Answer: The viability at 28.5 h, 10 µM was 102%.

Question: For `COc1ccc(C2(CNC(C)(C)CN)CCCC2)cc1OC` [CBK008989], which viability at 28.5 h, 10 µM is on record?
Answer: The viability at 28.5 h, 10 µM was 104%.

Question: With `Cn1c(CN2C[C@H](O)C[C@H]2c2nc(-c3ccccc3)no2)nc2ccccc21` [CBK288834] as the compound, how does the viability at 28.5 h, 10 µM read?
Answer: Its viability at 28.5 h, 10 µM is 78.7%.

Question: Which viability at 28.5 h, 10 µM does the source give for `O=C(O)c1ccc(Br)c(S(=O)(=O)Nc2ccc(Cl)cc2)c1` [CBK263247] here?
Answer: The viability at 28.5 h, 10 µM was 98%.

Question: For `O=C1CCC(=O)N1CCOc1nccnc1OC1CCN(Cc2ccc([N+](=O)[O-])cc2)CC1` [CBK084343], which viability at 28.5 h, 10 µM is on record?
Answer: The viability at 28.5 h, 10 µM was 95.7%.

Question: With `COc1cccc(/C=C2/SC(=S)NC2=O)c1OCCCOc1ccccc1C` [CBK264442] as the compound, how does the viability at 28.5 h, 10 µM read?
Answer: Its viability at 28.5 h, 10 µM is 98.9%.

Question: Which viability at 28.5 h, 10 µM does the source give for `O=C(O)CCCn1cc(NC(=O)c2cccc(F)c2)cn1` [CBK270051] here?
Answer: Its viability at 28.5 h, 10 µM is 91.4%.

Question: Which viability at 28.5 h, 10 µM does the source give for `Cc1cc(C)n(C(C)CC(=O)NCC(C)N2CCC(C)CC2)n1` (centres unmarked) [CBK282104] here?
Answer: Its viability at 28.5 h, 10 µM is 108%.

Question: With `O=[N+]([O-])c1cc([N+](=O)[O-])c(Nc2ccncc2)c([N+](=O)[O-])c1Nc1ccncc1` [CBK278276] as the compound, how does the viability at 28.5 h, 10 µM read?
Answer: Its viability at 28.5 h, 10 µM is 96.1%.

Question: Which viability at 28.5 h, 10 µM does the source give for `O=C(CCCn1cccn1)N1CCOC(c2ccc(Cl)c(Cl)c2)C1` (centres unmarked) [CBK304640] here?
Answer: Its viability at 28.5 h, 10 µM is 98.5%.

Question: With `CCCc1cc(C(=O)N2CCN(C)C3(CCNC(=O)CC3)C2)ccn1` (centres unmarked) [CBK306815] as the compound, how does the viability at 28.5 h, 10 µM read?
Answer: Its viability at 28.5 h, 10 µM is 96.2%.

Question: Which viability at 28.5 h, 10 µM does the source give for `O=[N+]([O-])c1ccc(N2CCN(CCO)CC2)cc1NCc1ccccc1` [CBK042200] here?
Answer: The viability at 28.5 h, 10 µM was 99.9%.

Question: For `COc1ccc(CC(=O)N2CCCC(c3cccc(Cc4cccc(C)c4)n3)C2)cc1` (centres unmarked) [CBK286498], which viability at 28.5 h, 10 µM is on record?
Answer: The viability at 28.5 h, 10 µM was 99.8%.

Question: With `O=C(O)C1C2C=CC(C2)C1C(=O)NCc1ccncc1` (centres unmarked) [CBK265403] as the compound, how does the viability at 28.5 h, 10 µM read?
Answer: Its viability at 28.5 h, 10 µM is 102%.

Question: With `COCCN(C)c1nc2c(c(=O)[nH]1)Cc1ccccc1OC2` [CBK306737] as the compound, how does the viability at 28.5 h, 10 µM read?
Answer: Its viability at 28.5 h, 10 µM is 105%.

Question: For `O=c1oc(-c2cccc(F)c2)nc2ccc(Cc3ccc4nc(-c5cccc(F)c5)oc(=O)c4c3)cc12` [CBK262856], which viability at 28.5 h, 10 µM is on record?
Answer: Its viability at 28.5 h, 10 µM is 120%.

Question: Which viability at 28.5 h, 10 µM does the source give for `NCc1ccc(-c2nc3ccccc3[nH]2)nc1` [CBK024396C] here?
Answer: Its viability at 28.5 h, 10 µM is 87.7%.

Question: For `O=C(O)c1ccccc1C(=O)OCCN1CCOCC1` [CBK261462], which viability at 28.5 h, 10 µM is on record?
Answer: The viability at 28.5 h, 10 µM was 85.4%.

Question: Which viability at 28.5 h, 10 µM does the source give for `COc1ccc(-c2ncc(OCC3CCCN3C)nc2N)c(OC)c1` (centres unmarked) [CBK145091] here?
Answer: Its viability at 28.5 h, 10 µM is 88.9%.

Question: For `Cc1nc2c(C(=O)NCCCN3CCCC3=O)cnn2c(C)c1Cc1cccnc1` [CBK162151], which viability at 28.5 h, 10 µM is on record?
Answer: Its viability at 28.5 h, 10 µM is 108%.

Question: With `Cc1ccnc(SCc2cc(=O)c3c(=O)n(-c4ccccc4)[nH]c3[nH]2)n1` [CBK269875] as the compound, how does the viability at 28.5 h, 10 µM read?
Answer: The viability at 28.5 h, 10 µM was 110%.

Question: Which viability at 28.5 h, 10 µM does the source give for `CN1C(=O)CC2(C1=O)C(=O)N(CCN1CCCC1=O)c1ccc(F)cc12` (centres unmarked) [CBK075463] here?
Answer: The viability at 28.5 h, 10 µM was 90.4%.

Question: Which viability at 28.5 h, 10 µM does the source give for `O=C(CCn1cnc2ccccc2c1=O)Nc1ccc(S(=O)(=O)N2CCOCC2)cc1` [CBK267645] here?
Answer: The viability at 28.5 h, 10 µM was 98.9%.

Question: For `CN(C)c1ccccc1C1(O)CN2CCC1CC2` (centres unmarked) [CBK022620], which viability at 28.5 h, 10 µM is on record?
Answer: The viability at 28.5 h, 10 µM was 86.8%.

Question: For `Nc1nccnc1C(=O)N1CCN(C(=O)Cc2c[nH]c3ccccc23)CC1` [CBK298339], which viability at 28.5 h, 10 µM is on record?
Answer: The viability at 28.5 h, 10 µM was 88.1%.

Reference: publication PMC12040169 (PLOS Biology, 2025)
